Measurements from patent US20250214896A1, “THIOL / SULFIDE CONTAINING CONCRETE COMPOSITION” (Yarmouk University, priority 2024, published 2025).
Values belong to the molecule of their own block, whether it stands above or below them.

Columns and labels:
physchem = experiment: physchem
Excerpt: The reduction attributes of these compounds are subject to pH conditions, specifically, in the alkaline media of the cement mixture where the pH is around 12.

[1] = Dimerization of thiol monomers under oxidizing conditions, evaluated by reverse-phase HPLC; format: physicochemical; conditions: about 0.56 M thiol, 10% NaOH, 3.0% hydrogen peroxide
Protocol: In this example, reference will be made to FIGS. 1 and 2. In this example, the role of thiol group was evaluated by oxidizing the monomers generating a dimer. About 10% by volume aqueous NaOH solution was added to about 0.56 M of mercapto (thiol) series (cysteine, cysteine methyl ester, beta-mercaptoethanol, and dithiothreitol), then a […] step was performed using about 3.0% by volume aqueous solution of hydrogen peroxide. Subsequently, centrifugation was performed at about 3000 rpm for about 5 minutes, then the supernatant was discarded and the pellets were recrystallized followed by rinsing with a few drops of cold water.
The dimerization process was evaluated using reverse-phase HPLC. For the analysis, about 5 μL injection volume was used. The mobile phase consisted of a mixture of acetonitrile and water in a ratio of about 65:35. […] Two distinct peaks were identified at distinct retention times.
The modification of the carboxylic group to a methyl ester increased the acidity of the ammonium protons relative to the thiol protons. […] The inhibitory effect of the ester group on disulfide bond formation was attributed to the presence of the methyl ester group in cysteine methyl ester.

Molecule: OCC(O)C(S)CS (stereo not drawn) [3,4-disulfanylbutane-1,2-diol, 3,4-disulfanyl-butane-1,2-diol]
pKa (physchem; pKa of the primary OH): 15.8
pKa (physchem; pKa of the primary SH): 8.93
pKa (physchem; pKa of the secondary OH): 14.3
pKa (physchem; pKa of the secondary SH): 7.98

Molecule: COC(=O)[C@@H](N)CS [cysteine methyl ester]
pKa (physchem): 6.86
pKa (physchem; pKa of the NH2): 7.93
dimer (disulfide) formation on oxidation [1]: unable to form a dimer

Molecule: OCC(S)CS (stereo not drawn) [2,3-disulfanylpropan-1-ol]
pKa (physchem; pKa of the OH): 15.8
pKa (physchem; pKa of the primary SH): 8.95
pKa (physchem; pKa of the secondary SH): 8.05

Second part, the molecule after the results:

pKa of the OH (physchem): 16.25
pKa of the SH (physchem): 8.51
Molecule: β-mercapto ethanol [β-mercaptoethanol]

pKa (physchem; pKa of the first SH): 8.12
pKa (physchem; pKa of the second SH): 8.72
Molecule: O[C@H](CS)[C@H](O)CS (racemic) [dithiothreitol]

pKa (physchem; pKa of the COOH): 2.35
pKa (physchem; pKa of the NH2): 9.54
pKa (physchem; pKa of the SH): 6.61
dimer (disulfide) formation on oxidation [1]: successful formation of cysteine dimer
Molecule: N[C@@H](CS)C(=O)O [cysteine]
